The record followed here is patent EP0080940B1, “Derivatives of 2-phenyl-morpholine and medical compositions” (LABORATOIRE L. LAFON Société anonyme dite:, priority 1981, dated 1983).

Where two headings read alike, the source gives them in different places. A value given as a limit tells only on which side of the number the result lay.

Common to all, as to assay type: in vivo
A short description of data set [1]: Acute toxicity by the i.p. route (DL-0, DL-50). To be noted: mouse, in vivo, ip; souris mâle, voie i.p. As to the method:
(§1) On a résumé ci-après les résultats des essais qui ont été entrepris chez l'animal avec le CRL 40914, ce produit étant administré, sauf indications contraires, en solution dans l'eau (à pH 5) par voie intrapéritonéale sous un volume de 20 ml/kg chez la souris mâle et de 5 ml/kg chez le rat mâle.
(§2) Chez la souris mâle, la DL-0 (dose maximale non mortelle) par voie i.p. est supérieure à 128 mg/kg.
(§3) On a résumé ci-après les résultats des essais qui ont été entrepris chez l'animal avec le CRL 40915, les modalités opératoires étant celles données ci-dessus pour le CR L 40914.
(§4) Chez la souris mâle, la DL-0 (dose maximale non mortelle) par voie i.p. est supérieure à 256 mg/kg, et la DL-50 par voie i.p. est de l'ordre de 500 mg/kg environ.

The next data set relates to souris mâle. In words: Acute toxicity by the i.p. route (DL-0, DL-50). To be noted: voie i.p. As to the method: as §1, §2, §3, §4
For data set [2], the system named is souris. Put plainly: Global behaviour and reactivity, mouse. The method, then: as §1
(§5) Des lots de 3 animaux sont observés avant, puis 15 min, 30 min, 1 h, 2 h, 3 h et 24 h après l'administration de CRL 40914. On observe ce qui suit:
as §3

In a further data set the test system is rat. Put plainly: Global behaviour and reactivity, rat. To be noted: rat. The method, then:
as §1, §5, §3

Data set [3] deals with souris. In words: Interaction with apomorphine, mouse. As to the method: Des lots de 6 souris reçoivent le CRL 40914 une demi-heure avant l'injection sous-cutanée d'apomorphine, à la dose de 1 mg/kg ou 16 mg/kg.
as §3

The subject of data set [4] is rats. Put plainly: Interaction with apomorphine, rat. The conditions noted are these: rat. The method, then:
Le CRL 40914 est administré aux rats une demi-heure avant l'injection sous-cutanée de 0,5 mg/kg d'apomorphine.
as §3

The subject of data set [5] is rats. In words: Interaction with amphetamine. The conditions noted are these: rat. The method, then: L'amphétamine (2 mg/kg) est injectée par voie intrapéritonéale à des lots de 12 rats, une demi-heure après l'administration de CRL 40914.
as §3

In data set [6] the test system is souris. Put plainly: Interaction with reserpine. The conditions noted are these: 128 mg/kg. The method, then:
Quatre heures après l'injection intrapéritonéale de 2,5 mg/kg de réserpine, des lots de 6 souris reçoivent le CRL 40914.
as §3

Data set [7] deals with souris. Put plainly: Interaction with oxotremorine. The method, then:
Le CRL 40914 est administré à des lots de 6 souris une demi-heure avant l'injection intrapéritonéale de 0,5 mg/kg d'oxotrémorine.
as §3

Data set [8] deals with souris. Put plainly: Four plates test, traction and electroshock. To be noted: 32 mg/kg et 128 mg/kg.
Source text: Le test est pratiqué sur des lots de 10 souris, une demi-heure après l'administration de CRL 40914.
as §3

The test system of data set [9] is souris. Put plainly: Action on spontaneous motility (actimeter). The conditions noted are these: 32 mg/kg et 128 mg/kg. As to the method: Une demi-heure après avoir reçu le CRL 40914, des souris sont placées en actimètre où leur motilité est enregistrée pendant 30 min.
as §3

Data set [10] deals with souris. Put plainly: Motility reduced by habituation to the enclosure. As to the method:
Après 18 h de séjour dans les actimètres, les souris (6 par dose, 12 témoins) reçoivent le CRL 40914. Elles sont aussitôt replacées dans leurs enceintes respectives et, une demi-heure plus tard, on enregistre leur motilité pendant 30 min.
as §3

Data set [11] has as its system souris. In words: Motility reduced by hypoxic aggression. As to the method:
Une demi-heure après avoir reçu le CRL 40914, les souris (10 par dose, 20 témoins) sont soumises à une anoxie hypobare aiguë [dépression de 600 mm Hg (soit environ 8 x10^4 pascals) en 90 s puis détente de 45 s] puis elles sont placées en actimètre où leur motilité est enregistrée pendant 10min.
as §3

Data set [12] relates to souris. In words: Asphyxic anoxia (gallamine triethiodide). To be noted: 8 mg/kg, 32 mg/kg et 128 mg/kg, triiodoéthylate de gallamine. As to the method: Des lots de 10 souris reçoivent le CRL 40914 une demi-heure avant l'administration intrapéritonéale de 32 mg/kg de triiodoéthylate de gallamine (agent curarisant de référence).
as §3

Data set [13] has as its system souris. Put plainly: Interaction with yohimbine, temperature. The conditions noted are these: yohimbine 0,5 mg/kg i.p. alone. As to the method:
Des lots de 12 souris reçoivent une injection intrapéritonéale de 0,5 mg/kg de yohimbine, une demi-heure avant l'administration de CRL 40914.

Data set [14] has as its system souris. Put plainly: Interaction with yohimbine, spontaneous motility. To be noted: yohimbine 0,5 mg/kg i.p. alone. As to the method: Des lots de 12 souris reçoivent la yohimbine (0,5 mg/kg i.p.) et le CRL 40914 respectivement 60 et 30 min avant d'être placées en actimètre où leur motilité est enregistrée pendant une demi-heure.

By LD50 is commonly meant the dose at which mortality reaches 50%. A lower LD50 goes with a more toxic substance. Consider `Cc1ccccc1C1CN(C)CCO1` (stereo not shown) [CRL 40915, Chlorhydratede 2-o-tolyl-4-méthyl-morpholine], for which the LD50 in data set [1] is around 500 mg/kg. For the same compound, the “DL-0 (dose maximale non mortelle)” value with souris mâle is above 256 mg/kg. For the same compound, in the data set on souris [2] (2 mg/kg i.p.), the symptômes result is “pas de symptômes nets”. The sédation entry with souris [2] (8 mg/kg i.p.) is reported as “sédation fugace pendant 15 à 30 minutes”; in the data set with souris [2] (32 mg/kg i.p.), “sédation pendant 1 heure”; with souris [2] (128 mg/kg i.p.) it was “sédation avec diminution de la réaction d'agressivité pendant 2 heures”; in the data set on rat (4 mg/kg i.p.) it was “sédation pendant 30 minutes”; with rat (16 mg/kg i.p.), “sédation pendant 1 à 2 heures”; with rat (64 mg/kg i.p.) it was “sédation pendant 1 à 2 heures”. The hypothermie with souris [2] (8 mg/kg i.p., pendant 1 heure) is -1,5 °C; in the data set with souris [2] (32 mg/kg i.p., pendant 1 heure), -2,8 °C; with souris [2] (128 mg/kg i.p., pendant 2 heures) it was -2,9 °C; with rat (64 mg/kg i.p., pendant 30 à 60 minutes), -1,9 °C. In the data set on souris [2] (128 mg/kg i.p.), the convulsions entry is given as “convulsions pendant 15 minutes”. Besides, the hyporéactivité au toucher entry in the data set with souris [2] (128 mg/kg i.p.) is “hyporéactivité au toucher pendant 15 minutes”. For the same compound, in the data set with souris [2] (128 mg/kg i.p.), the salivation et lacrymation entry is “salivation et lacrymation pendant 30 minutes”. In addition, the signes entry with rat (1 mg/kg i.p.) is “pas de signes particuliers”. In addition, the mydriase result in the data set with rat (4 mg/kg i.p.) is “mydriase modérée pendant 30 minutes”; in the data set on rat (16 mg/kg i.p.), “mydriase pendant 30 à 60 minutes”; in the data set on rat (64 mg/kg i.p.), “mydriase pendant 1 heure”. In addition, the piloérection entry is on record as “piloérection” with rat (16 mg/kg i.p.) and “piloérection pendant 1 heure” in the data set on rat (64 mg/kg i.p.). In addition, the “action hypothermisante de l'apomorphine” value with souris [3] (32 mg/kg et 128 mg/kg) is “s'oppose aux doses de 32 mg/kg et 128 mg/kg à l'action hypothermisante de l'apomorphine”. In the data set with souris [3] (128 mg/kg, faible dose (1 mg/kg) d'apomorphine), the “indices de verticalisation et de stéréotypies (apomorphine)” value is “diminue les indices de verticalisation et de stéréotypies”. The “effet intrinsèque sur la température” value with souris [3] (doses voisines de 32 mg/kg) and in the data set with souris [7] (32 mg/kg et 128 mg/kg) was “effet hypothermisant intrinsèque” in each case. The “stéréotypies produites par l'apomorphine” value with rats [4] is listed as “ne modifie pas les stéréotypies produites par l'apomorphine”. The “stéréotypies amphétaminiques” value in the data set on rats [5] is “ne sont pas modifiées”. Besides, the “hypothermie réserpinique” value in the data set with souris [6] is “aggrevation de I-hypothermie réserpinique”. In the data set on souris [6], the “ptosis réserpinique” value was “le ptosis déjà maximal n'est pas modifié”. Also, the “hypothermie induite par l'oxotrémorine” value in the data set with souris [7] (32 mg/kg et 128 mg/kg) is reported as “s'oppose à l'hypothermie induite par l'oxotrémorine”. The “tremblements induits par l'oxotrémorine” value in the data set with souris [7] (128 mg/kg) is “semblent partiellement antagonisés”. Also, the “signes de stimulation cholinergique périphérique provoqués par l'oxotrémorine” value in the data set on souris [7] (oxotrémorine 0,5 mg/kg i.p.) is listed as “laisse inchangés les signes de stimulation cholinergique périphérique”. Moreover, the “déficit moteur (traction)” value in the data set with souris [8] is given as “ne provoque pas de déficit moteur majeur”. In the data set with souris [8], the “effets convulsivants de l'électrochoc” value was “s'oppose aux effets convulsivants de l'électrochoc”. Moreover, the “nombre de passages punis (test des quatre plaques)” value in the data set with souris [8] is given as “diminue le nombre de passages punis”. In addition, the “activité motrice spontanée” value in the data set on souris [9] is on record as “diminution importante de l'activité motrice spontanée”. Moreover, the “activité motrice chez la souris habituée à son enceinte” value in the data set with souris [10] is listed as “ne provoque pas de reprise de l'activité”. The “récupération motrice après agression hypoxique” value is “n'entraîne pas d'amélioration de la récupération motrice” with souris [11] and “aggravation” in the data set with souris [11] (32 mg/kg et 128 mg/kg). Moreover, the “apparition des convulsions et de la mort (anoxie asphyxique)” value in the data set with souris [12] is given as “retarde l'apparition des convulsions et de la mort”.
`COC(=O)[C@@H]1[C@H]2C[C@H]3c4[nH]c5ccccc5c4CCN3C[C@@H]2CC[C@@H]1O` [yohimbine, reference compound]: the température rectale entry in the data set with souris [13] is “ne modifie pas la température rectale”. The “activité motrice spontanée” value with souris [14] is reported as “ne modifie pas l'activité motrice spontanée”.
